# Article PMC11822212, “High-throughput screening identifies Aurora kinase B as a critical therapeutic target for Merkel cell carcinoma” (Nature Communications, 2025)
# Counter-ions that a name gives are not always drawn.
# Experiments:
# CRL-7250 cells = test: qHTS cell viability (CellTiter-Glo, 72 h; primary screen), control cell line; type: cell-based
# MCC26 cells (VN-MCC) = test: qHTS cell viability (CellTiter-Glo, 72 h; primary and follow-up small molecule screen); type: cell-based, human
# MCC13 cells (VN-MCC) = test: as above; type: cell-based, human
# HEK293T cells = test: qHTS cell viability (CellTiter-Glo, 72 h; primary screen), control cell line; type: cell-based, human
# [1] = test system: control cell lines (HACAT, HEK293T, CRL-7250, NIH-3T3); test: qHTS cell viability, control cell lines as a group (mean AUC, Control.avg); type: cell-based; details: mean AUC of control cell lines
# HACAT cells = test: qHTS cell viability (CellTiter-Glo, 72 h; primary screen), control cell line; type: cell-based, human
# NIH-3T3 cells = test: as above; type: cell-based, mouse
# [2] = test system: VP-MCC cell lines (WAGA, MKL-1, MKL-2); test: qHTS cell viability, VP-MCC cell lines as a group (mean AUC, VP.MCC.avg); type: cell-based, human; details: for VP-MCC_Avg_AUC: mean AUC of VP-MCC cell lines
# [3] = test system: MCC cell lines (WAGA, MKL-1, MKL-2, MCC13, MCC26, UISO); test: qHTS cell viability, all six MCC cell lines as a group (mean AUC, MCC.avg); type: cell-based, human
# UISO cells (VN-MCC) = test: qHTS cell viability (CellTiter-Glo, 72 h; primary and follow-up small molecule screen); type: cell-based, human
# MKL-2 cells (VP-MCC) = test: as above; type: cell-based, human
# [4] = test system: VN-MCC cell lines (MCC13, MCC26, UISO); test: qHTS cell viability, VN-MCC cell lines as a group (mean AUC, VN.MCC.avg); type: cell-based, human; details: for VN-MCC_Avg_AUC: mean AUC of VN-MCC cell lines
# MKL-1 cells (VP-MCC) = test: qHTS cell viability (CellTiter-Glo, 72 h; primary and follow-up small molecule screen); type: cell-based, human
# [5] = test system: six MCC cell lines and four control cell lines; test: qHTS cell viability, all 10 cell lines screened; type: cell-based
# WAGA cells (VP-MCC) = test: qHTS cell viability (CellTiter-Glo, 72 h; primary and follow-up small molecule screen); type: cell-based, human
# [6] = NPC library, mean AUC of six MCC cell lines
# [7] = MIPE library, 11-point DRC, control cell line, sheet S2E
# [8] = MIPE library, 11-point DRC, sheet S2E
# [9] = NPC library, 8-point DRC, control cell line
# [10] = NPC library, 8-point DRC, area under dose-response curve
smiles,measurement,setting,value
CCN(CC)CCNC(=O)c1ccc(NC(C)=O)cc1 [Acecainide hydrochloride],CRL7250_AUC,"CRL-7250 cells; NPC library, qHTS dose-response AUC, CRL7250 control",485.167
same,CRL7250_AUC,"CRL-7250 cells; area under the dose-response curve, CRL7250 control cells, AUC<450 = reduced viability",485.167
same,MCC26_AUC,"MCC26 cells (VN-MCC); NPC library, qHTS dose-response AUC, MCC26",385.871
same,MCC26_AUC,"MCC26 cells (VN-MCC); area under the dose-response curve, MCC26 cells, AUC<450 = reduced viability",385.871
same,MCC13_AUC,"MCC13 cells (VN-MCC); NPC library, qHTS dose-response AUC, MCC13",428.813
same,MCC13_AUC,"MCC13 cells (VN-MCC); area under the dose-response curve, MCC13 cells, AUC<450 = reduced viability",428.813
same,HEK293T_AUC,"HEK293T cells; NPC library, qHTS dose-response AUC, HEK293T control",458.505
same,HEK293T_AUC,"HEK293T cells; area under the dose-response curve, HEK293T control cells, AUC<450 = reduced viability",458.505
same,Control_Avg_AUC,[1]; NPC library,478.381
same,HACAT_AUC,"HACAT cells; NPC library, qHTS dose-response AUC, HACAT control",489.271
same,HACAT_AUC,"HACAT cells; area under the dose-response curve, HACAT control cells, AUC<450 = reduced viability",489.271
same,NIH3T3_AUC,"NIH-3T3 cells; NPC library, qHTS dose-response AUC, NIH3T3 control",480.581
same,NIH3T3_AUC,"NIH-3T3 cells; area under the dose-response curve, NIH3T3 control cells, AUC<450 = reduced viability",480.581
same,Control-VP-MCC,[2]; Control AUC minus VP-MCC AUC,54.3246
same,VP-MCC_Avg_AUC,[2]; NPC library,424.056
same,Control-VP-MCC,"[2]; NPC library, therapeutic window: Control avg AUC minus VP-MCC avg AUC",54.3246
same,MCC_Avg_AUC,"[3]; NPC library, mean AUC of all 6 MCC cell lines",421.904
same,MCC_Avg_AUC,[3]; [6],421.904
same,UISO_AUC,"UISO cells (VN-MCC); NPC library, qHTS dose-response AUC, UISO",444.571
same,UISO_AUC,"UISO cells (VN-MCC); area under the dose-response curve, UISO cells, AUC<450 = reduced viability",444.571
same,MKL2_AUC,"MKL-2 cells (VP-MCC); NPC library, qHTS dose-response AUC, MKL2",429.744
same,MKL2_AUC,"MKL-2 cells (VP-MCC); area under the dose-response curve, MKL-2 cells, AUC<450 = reduced viability",429.744
same,Control-VN-MCC,[4]; Control AUC minus VN-MCC AUC,58.6292
same,VN-MCC_Avg_AUC,[4]; NPC library,419.752
same,Control-VN-MCC,"[4]; NPC library, therapeutic window: Control avg AUC minus VN-MCC avg AUC",58.6293
same,MKL1_AUC,"MKL-1 cells (VP-MCC); NPC library, qHTS dose-response AUC, MKL1",419.008
same,MKL1_AUC,MKL-1 cells (VP-MCC); {},419.008
same,Control-MCC,"[5]; NPC library, therapeutic window: Control avg AUC minus MCC avg AUC",56.4769
same,WAGA_AUC,"WAGA cells (VP-MCC); NPC library, qHTS dose-response AUC, WAGA",423.417
same,WAGA_AUC,"WAGA cells (VP-MCC); area under the dose-response curve, WAGA cells, AUC<450 = reduced viability",423.417
C=CC(=O)Nc1cccc(Nc2nc(NC3CCC(N(C)C)CC3)nc3c2ncn3C(C)C)c1 (stereo not shown) [HMSL10084],CRL7250_AUC,CRL-7250 cells; [7],274.567
same,MCC26_AUC,MCC26 cells (VN-MCC); [8],381.337
same,MCC13_AUC,MCC13 cells (VN-MCC); [8],424.628
same,HEK293T_AUC,HEK293T cells; [7],317.706
same,Control_Avg_AUC,"[1]; MIPE library, sheet S2E",352.686
same,HACAT_AUC,HACAT cells; [7],381.06
same,NIH3T3_AUC,NIH-3T3 cells; [7],437.409
same,Control-VP-MCC,"[2]; MIPE library, Control AUC minus VP-MCC AUC (therapeutic window), sheet S2E",174.338
same,VP-MCC_Avg_AUC,"[2]; MIPE library, sheet S2E",178.348
same,MCC_Avg_AUC,"[3]; MIPE library, mean AUC of six MCC cell lines, sheet S2E",269.649
same,UISO_AUC,UISO cells (VN-MCC); [8],276.887
same,MKL2_AUC,MKL-2 cells (VP-MCC); [8],208.594
same,Control-VN-MCC,"[4]; MIPE library, Control AUC minus VN-MCC AUC (therapeutic window), sheet S2E",-8.265
same,VN-MCC_Avg_AUC,"[4]; MIPE library, sheet S2E",360.951
same,MKL1_AUC,MKL-1 cells (VP-MCC); [8],144.905
same,Control-MCC,"[5]; MIPE library, Control AUC minus MCC AUC (therapeutic window), sheet S2E",83.0363
same,WAGA_AUC,WAGA cells (VP-MCC); [8],181.546
O=S1(=O)OC(c2ccc(O)cc2)(c2ccc(O)cc2)c2ccccc21 [Phenol red],CRL7250_AUC,CRL-7250 cells; [9],462.075
same,MCC26_AUC,MCC26 cells (VN-MCC); [10],404.069
same,MCC13_AUC,MCC13 cells (VN-MCC); [10],422.151
same,HEK293T_AUC,HEK293T cells; [9],472.146
same,Control_Avg_AUC,[1]; NPC library,477.832
same,HACAT_AUC,HACAT cells; [9],492.366
same,NIH3T3_AUC,NIH-3T3 cells; [9],484.742
same,Control-VP-MCC,"[2]; NPC library, Control AUC minus VP-MCC AUC (therapeutic window)",30.8871
same,VP-MCC_Avg_AUC,[2]; NPC library,446.945
same,MCC_Avg_AUC,[3]; [6],431.761
same,UISO_AUC,UISO cells (VN-MCC); [10],423.512
same,MKL2_AUC,MKL-2 cells (VP-MCC); [10],451.959
same,Control-VN-MCC,"[4]; NPC library, Control AUC minus VN-MCC AUC (therapeutic window)",61.2549
same,VN-MCC_Avg_AUC,[4]; NPC library,416.577
same,MKL1_AUC,MKL-1 cells (VP-MCC); [10],429.88
same,Control-MCC,"[5]; NPC library, Control AUC minus MCC AUC (therapeutic window)",46.071
same,WAGA_AUC,WAGA cells (VP-MCC); [10],458.996
